Like-named read-outs stand apart in the source and are kept apart here. One block for each compound: values may come before it.
Experiments:
[1] = tested on: glutamate-induced 45Ca2+ uptake into synaptosomes of rat brain cortex; test: Effect on glutamate-induced 45Ca2+ uptake into synaptosomes of rat brain cortex; assay type: biochemical, Wistar rats; details: for Percentage 45Ca2+ of Control (Control – 100%): 200 μM glutamate, 5 min, 37 °C; for overall inhibiting activity on calcium ion uptake, in words: whole concentration range 0.01–100 μM; for inhibition of glutamate-induced calcium ion uptake: concentration of 1 μM
[2] = assay type: physicochemical

mole fraction solubility (x) ([2]; 1-octanol, 293.15 K): 0.89 x · 10^4
A, parameter of the correlation equation lnx=A-B/T ([2]; 1-octanol, 293.15–313.15 K): 3.95 ± 0.23
B, parameter of the correlation equation lnx=A-B/T ([2]; 1-octanol, 293.15–313.15 K): 3889 ± 69
mole fraction solubility (x) ([2]; 1-octanol, 298.15 K): 1.13 x · 10^4
ΔGsol0, standard molar dissolution Gibbs energy ([2]; 1-octanol, 298.15 K): 5.38 kcal/mol
ΔHsol0, standard molar dissolution enthalpy ([2]; 1-octanol, 298.15 K): 7.72 kcal/mol
ΔSsol0, standard molar dissolution entropy ([2]; 1-octanol, 298.15 K): 32.9 J/mol⋅K
mole fraction solubility (x) ([2]; 1-octanol, 303.15 K): 1.39 x · 10^4
mole fraction solubility (x) ([2]; 1-octanol, 308.15 K): 1.68 x · 10^4
mole fraction solubility (x) ([2]; 1-octanol, 313.15 K): 2.11 x · 10^4
mole fraction solubility (x) ([2]; Buffer pH 7.4, 293.15 K): 1.64 x · 10^6
A, parameter of the correlation equation lnx=A-B/T ([2]; Buffer pH 7.4, 293.15–313.15 K): −2.90 ± 0.22
B, parameter of the correlation equation lnx=A-B/T ([2]; Buffer pH 7.4, 293.15–313.15 K): 3054 ± 67
mole fraction solubility (x) ([2]; Buffer pH 7.4, 298.15 K): 1.96 x · 10^6
ΔGsol0, standard molar dissolution Gibbs energy ([2]; Buffer pH 7.4, 298.15 K): 7.79 kcal/mol
ΔHsol0, standard molar dissolution enthalpy ([2]; Buffer pH 7.4, 298.15 K): 6.07 kcal/mol
ΔSsol0, standard molar dissolution entropy ([2]; Buffer pH 7.4, 298.15 K): -24.2 J/mol⋅K
mole fraction solubility (x) ([2]; Buffer pH 7.4, 303.15 K): 2.27 x · 10^6
mole fraction solubility (x) ([2]; Buffer pH 7.4, 308.15 K): 2.70 x · 10^6
mole fraction solubility (x) ([2]; Buffer pH 7.4, 313.15 K): 3.21 x · 10^6
mole fraction solubility (x) ([2]; Hexane, 293.15 K): 1.42 x · 10^5
A, parameter of the correlation equation lnx=A-B/T ([2]; Hexane, 293.15–313.15 K): −1.39 ± 0.17
B, parameter of the correlation equation lnx=A-B/T ([2]; Hexane, 293.15–313.15 K): 2989 ± 49
mole fraction solubility (x) ([2]; Hexane, 298.15 K): 1.70 x · 10^5
ΔGsol0, standard molar dissolution Gibbs energy ([2]; Hexane, 298.15 K): 6.5 kcal/mol
ΔHsol0, standard molar dissolution enthalpy ([2]; Hexane, 298.15 K): 5.95 kcal/mol
ΔSsol0, standard molar dissolution entropy ([2]; Hexane, 298.15 K): -7.7 J/mol⋅K
mole fraction solubility (x) ([2]; Hexane, 303.15 K): 2.02 x · 10^5
mole fraction solubility (x) ([2]; Hexane, 308.15 K): 2.35 x · 10^5
mole fraction solubility (x) ([2]; Hexane, 313.15 K): 2.72 x · 10^5
Structure (SMILES): Cc1ccc2c(c1)c1c(n2CCc2n[nH]c(=S)n2C)CCN(C)C1 [Compound II, 5-[2-(2,8-Dimethyl-1,2,3,4-tetrahydropyrido[4,3-b]indol-5-yl)ethyl]-4-methyl-2,4-dihydro [1,2,4] triazole-3-thione]
Percentage 45Ca2+ of Control (Control – 100%) ([1]; compound 0.01 μM): 84.7 ± 1.2%
Percentage 45Ca2+ of Control (Control – 100%) ([1]; compound 0.1 μM): 85.5 ± 3.9%
Percentage 45Ca2+ of Control (Control – 100%) ([1]; compound 0.5 μM): 102.6 ± 3.6%
Percentage 45Ca2+ of Control (Control – 100%) ([1]; compound 1 μM): 93.6 ± 3.6%
Percentage 45Ca2+ of Control (Control – 100%) ([1]; compound 5 μM): 113.1 ± 7.6%
Percentage 45Ca2+ of Control (Control – 100%) ([1]; compound 10 μM): 109.7 ± 7.5%
Percentage 45Ca2+ of Control (Control – 100%) ([1]; compound 50 μM): 118.6 ± 2.7%
Percentage 45Ca2+ of Control (Control – 100%) ([1]; compound 100 μM): 127.1 ± 17.1%
inhibition of glutamate-induced uptake of calcium ions ([1]; concentration of 0.01–0.1 μM): ~15%
overall inhibiting activity on calcium ion uptake, in words [1]: potentiates the uptake at high concentrations

mole fraction solubility (x) ([2]; 1-octanol, 293.15 K): 2.51 x · 10^4
A, parameter of the correlation equation lnx=A-B/T ([2]; 1-octanol, 293.15–313.15 K): 3.65 ± 0.15
B, parameter of the correlation equation lnx=A-B/T ([2]; 1-octanol, 293.15–313.15 K): 3501 ± 46
mole fraction solubility (x) ([2]; 1-octanol, 298.15 K): 3.01 x · 10^4
ΔGsol0, standard molar dissolution Gibbs energy ([2]; 1-octanol, 298.15 K): 4.8 kcal/mol
ΔHsol0, standard molar dissolution enthalpy ([2]; 1-octanol, 298.15 K): 6.96 kcal/mol
ΔSsol0, standard molar dissolution entropy ([2]; 1-octanol, 298.15 K): 30.2 J/mol⋅K
mole fraction solubility (x) ([2]; 1-octanol, 303.15 K): 3.68 x · 10^4
mole fraction solubility (x) ([2]; 1-octanol, 308.15 K): 4.39 x · 10^4
mole fraction solubility (x) ([2]; 1-octanol, 313.15 K): 5.30 x · 10^4
mole fraction solubility (x) ([2]; Buffer pH 7.4, 293.15 K): 8.34 x · 10^6
A, parameter of the correlation equation lnx=A-B/T ([2]; Buffer pH 7.4, 293.15–313.15 K): −2.96 ± 0.09
B, parameter of the correlation equation lnx=A-B/T ([2]; Buffer pH 7.4, 293.15–313.15 K): 2558 ± 27
mole fraction solubility (x) ([2]; Buffer pH 7.4, 298.15 K): 9.60 x · 10^6
ΔGsol0, standard molar dissolution Gibbs energy ([2]; Buffer pH 7.4, 298.15 K): 6.84 kcal/mol
ΔHsol0, standard molar dissolution enthalpy ([2]; Buffer pH 7.4, 298.15 K): 5.09 kcal/mol
ΔSsol0, standard molar dissolution entropy ([2]; Buffer pH 7.4, 298.15 K): -24.6 J/mol⋅K
mole fraction solubility (x) ([2]; Buffer pH 7.4, 303.15 K): 11.11 x · 10^6
mole fraction solubility (x) ([2]; Buffer pH 7.4, 308.15 K): 12.66 x · 10^6
mole fraction solubility (x) ([2]; Buffer pH 7.4, 313.15 K): 14.60 x · 10^6
mole fraction solubility (x) ([2]; Hexane, 293.15 K): 3.85 x · 10^4
A, parameter of the correlation equation lnx=A-B/T ([2]; Hexane, 293.15–313.15 K): 1.09 ± 0.1
B, parameter of the correlation equation lnx=A-B/T ([2]; Hexane, 293.15–313.15 K): 2624 ± 30
mole fraction solubility (x) ([2]; Hexane, 298.15 K): 4.47 x · 10^4
ΔGsol0, standard molar dissolution Gibbs energy ([2]; Hexane, 298.15 K): 4.57 kcal/mol
ΔHsol0, standard molar dissolution enthalpy ([2]; Hexane, 298.15 K): 5.21 kcal/mol
ΔSsol0, standard molar dissolution entropy ([2]; Hexane, 298.15 K): 9.1 J/mol⋅K
mole fraction solubility (x) ([2]; Hexane, 303.15 K): 5.11 x · 10^4
mole fraction solubility (x) ([2]; Hexane, 308.15 K): 5.96 x · 10^4
mole fraction solubility (x) ([2]; Hexane, 313.15 K): 6.81 x · 10^4
Structure (SMILES): CN1CCc2c(c3cc(F)ccc3n2CCc2n[nH]c(=S)n2C)C1 [Compound IV, 5-[2-(8-Fluoro-2-methyl-1,2,3,4-tetrahydropyrido[4,3-b]indol-5-yl)ethyl]-4-methyl-2,4-dihydro[1,2,4]triazole-3-thione]
Percentage 45Ca2+ of Control (Control – 100%) ([1]; compound 0.01 μM): 102.0 ± 9.8%
Percentage 45Ca2+ of Control (Control – 100%) ([1]; compound 0.1 μM): 78.7 ± 10.3%
Percentage 45Ca2+ of Control (Control – 100%) ([1]; compound 0.5 μM): 78.7 ± 8.0%
Percentage 45Ca2+ of Control (Control – 100%) ([1]; compound 1 μM): 83.2 ± 10.9%
Percentage 45Ca2+ of Control (Control – 100%) ([1]; compound 5 μM): 94.7 ± 8.5%
Percentage 45Ca2+ of Control (Control – 100%) ([1]; compound 10 μM): 93.4 ± 6.9%
Percentage 45Ca2+ of Control (Control – 100%) ([1]; compound 50 μM): 96.9 ± 6.0%
Percentage 45Ca2+ of Control (Control – 100%) ([1]; compound 100 μM): 87.1 ± 11.5%
inhibition of glutamate-induced calcium ion uptake [1]: ~17%
effect on glutamate-induced calcium ion uptake, in words ([1]; concentration of 0.1–1 μM): can act as an inhibitor
effect on glutamate-induced calcium ion uptake, in words ([1]; concentration of 5–100 μM): had no effect
overall inhibiting activity on calcium ion uptake, in words [1]: weak inhibitors of calcium ion uptake

mole fraction solubility (x) ([2]; 1-octanol, 293.15 K): 0.71 x · 10^4
A, parameter of the correlation equation lnx=A-B/T ([2]; 1-octanol, 293.15–313.15 K): 7.10 ± 0.15
B, parameter of the correlation equation lnx=A-B/T ([2]; 1-octanol, 293.15–313.15 K): 4876 ± 47
mole fraction solubility (x) ([2]; 1-octanol, 298.15 K): 0.93 x · 10^4
ΔGsol0, standard molar dissolution Gibbs energy ([2]; 1-octanol, 298.15 K): 5.5 kcal/mol
ΔHsol0, standard molar dissolution enthalpy ([2]; 1-octanol, 298.15 K): 9.68 kcal/mol
ΔSsol0, standard molar dissolution entropy ([2]; 1-octanol, 298.15 K): 58.7 J/mol⋅K
mole fraction solubility (x) ([2]; 1-octanol, 303.15 K): 1.22 x · 10^4
mole fraction solubility (x) ([2]; 1-octanol, 308.15 K): 1.61 x · 10^4
mole fraction solubility (x) ([2]; 1-octanol, 313.15 K): 2.05 x · 10^4
mole fraction solubility (x) ([2]; Buffer pH 7.4, 293.15 K): 5.57 x · 10^6
A, parameter of the correlation equation lnx=A-B/T ([2]; Buffer pH 7.4, 293.15–313.15 K): −2.82 ± 0.09
B, parameter of the correlation equation lnx=A-B/T ([2]; Buffer pH 7.4, 293.15–313.15 K): 2719 ± 29
mole fraction solubility (x) ([2]; Buffer pH 7.4, 298.15 K): 6.55 x · 10^6
ΔGsol0, standard molar dissolution Gibbs energy ([2]; Buffer pH 7.4, 298.15 K): 7.07 kcal/mol
ΔHsol0, standard molar dissolution enthalpy ([2]; Buffer pH 7.4, 298.15 K): 5.4 kcal/mol
ΔSsol0, standard molar dissolution entropy ([2]; Buffer pH 7.4, 298.15 K): –23.4 J/mol⋅K
mole fraction solubility (x) ([2]; Buffer pH 7.4, 303.15 K): 7.53 x · 10^6
mole fraction solubility (x) ([2]; Buffer pH 7.4, 308.15 K): 8.77 x · 10^6
mole fraction solubility (x) ([2]; Buffer pH 7.4, 313.15 K): 10.09 x · 10^6
mole fraction solubility (x) ([2]; Hexane, 293.15 K): 3.30 x · 10^5
A, parameter of the correlation equation lnx=A-B/T ([2]; Hexane, 293.15–313.15 K): −2.93 ± 0.14
B, parameter of the correlation equation lnx=A-B/T ([2]; Hexane, 293.15–313.15 K): 2165 ± 43
mole fraction solubility (x) ([2]; Hexane, 298.15 K): 3.71 x · 10^5
ΔGsol0, standard molar dissolution Gibbs energy ([2]; Hexane, 298.15 K): 6.05 kcal/mol
ΔHsol0, standard molar dissolution enthalpy ([2]; Hexane, 298.15 K): 4.3 kcal/mol
ΔSsol0, standard molar dissolution entropy ([2]; Hexane, 298.15 K): -24.5 J/mol⋅K
mole fraction solubility (x) ([2]; Hexane, 303.15 K): 4.18 x · 10^5
mole fraction solubility (x) ([2]; Hexane, 308.15 K): 4.68 x · 10^5
mole fraction solubility (x) ([2]; Hexane, 313.15 K): 5.31 x · 10^5
Structure (SMILES): COc1ccc2c(c1)c1c(n2CCc2n[nH]c(=S)n2C)CCN(C)C1 [III, 5-[2-(8-Methoxy-2-methyl-1,2,3,4-tetrahydropyrido[4,3-b]indol-5-yl)ethyl]-4-methyl-2,4-dihydro[1,2,4]triazole-3-thione]
Percentage 45Ca2+ of Control (Control – 100%) ([1]; compound 0.01 μM): 86.7 ± 4.0%
Percentage 45Ca2+ of Control (Control – 100%) ([1]; compound 0.1 μM): 57.5 ± 8.3%
Percentage 45Ca2+ of Control (Control – 100%) ([1]; compound 0.5 μM): 83.0 ± 7.9%
Percentage 45Ca2+ of Control (Control – 100%) ([1]; compound 1 μM): 83.4 ± 12.7%
Percentage 45Ca2+ of Control (Control – 100%) ([1]; compound 5 μM): 86.6 ± 4.5%
Percentage 45Ca2+ of Control (Control – 100%) ([1]; compound 10 μM): 85.8 ± 15.2%
Percentage 45Ca2+ of Control (Control – 100%) ([1]; compound 50 μM): 93.1 ± 12.8%
Percentage 45Ca2+ of Control (Control – 100%) ([1]; compound 100 μM): 96.1 ± 13.2%
maximal effect on calcium ion uptake (inhibiting ability) ([1]; concentration of 0.1 μM): 42.5%
inhibition of glutamate-induced calcium ion uptake [1]: ~17%
overall inhibiting activity on calcium ion uptake, in words [1]: highest inhibiting activity within a wide concentration range (0.01–10 μM)

Source: paper PMC6128713 (Saudi Pharmaceutical Journal : SPJ, 2018)
